The text below walks through data of patent US20230114241A1, “METHODS OF TREATING EPILEPSY USING THE SAME” (Trevena, Inc., priority 2019, published 2023).

Experiment [1] deals with T1, human sphingosine-1-phosphate receptor 1 (S1P1) (Homo sapiens, UniProt P21453). The experiment in a line: Inhibition of cAMP production (HTRF cAMP HiRange), S1P1 CHO-K1 cells. The format is cell-based. Conditions: for Emax: CHO-K1, efficacy normalized to maximum efficacy of fingolimod, read-out: hS1P1 CAMP SPAN; for EC50: read-out: hS1P1 CAMP pEC50 (converted). In outline:
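CHO-K1 cells co-expressing human S1P1 (C-terminal ProLink tag) and EA-β-arrestin2, plated overnight; after 30 min compound incubation at 37 °C, intracellular cAMP measured by HTRF TR-FRET following 1 h at room temperature. Values normalized to fingolimod.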
(cAMP levels reflect the balance of adenylyl cyclase and phosphodiesterase activity.)
Target sequence in this assay (P21453 whole entry): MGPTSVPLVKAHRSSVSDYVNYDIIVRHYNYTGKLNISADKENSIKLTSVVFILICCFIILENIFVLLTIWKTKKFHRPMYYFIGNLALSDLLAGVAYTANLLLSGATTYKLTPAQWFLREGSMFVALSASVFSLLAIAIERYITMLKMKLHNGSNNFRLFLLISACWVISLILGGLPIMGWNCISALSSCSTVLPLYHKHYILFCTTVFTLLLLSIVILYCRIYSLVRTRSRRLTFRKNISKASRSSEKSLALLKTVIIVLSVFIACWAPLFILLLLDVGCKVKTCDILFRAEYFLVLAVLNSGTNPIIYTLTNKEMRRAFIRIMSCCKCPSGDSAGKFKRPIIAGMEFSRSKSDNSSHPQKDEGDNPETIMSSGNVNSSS

Experiment [2] deals with T1, human sphingosine-1-phosphate receptor 1 (S1P1). The experiment in a line: β-Arrestin2 recruitment assay (PathHunter), S1P1 CHO-K1 cells. Format: cell-based. Conditions: for Emax: efficacy normalized to maximum efficacy of fingolimod, read-out: hS1P1 B-arrestin2 SPAN; for EC50: β-arrestin2 recruitment, read-out: hS1P1 B-arrestin2 pEC50 (converted). In outline:
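CHO-K1 cells co-expressing EA-β-arrestin2 and ProLink-tagged human S1P1 plated overnight, then stimulated 60 min at 37 °C. Enzyme-fragment complementation (β-galactosidase) detected after 1 h at room temperature by luminescence; values normalized to fingolimod.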
Target sequence in this assay (P21453 whole entry): as above
Target sequence in this assay (P32121 whole entry partner): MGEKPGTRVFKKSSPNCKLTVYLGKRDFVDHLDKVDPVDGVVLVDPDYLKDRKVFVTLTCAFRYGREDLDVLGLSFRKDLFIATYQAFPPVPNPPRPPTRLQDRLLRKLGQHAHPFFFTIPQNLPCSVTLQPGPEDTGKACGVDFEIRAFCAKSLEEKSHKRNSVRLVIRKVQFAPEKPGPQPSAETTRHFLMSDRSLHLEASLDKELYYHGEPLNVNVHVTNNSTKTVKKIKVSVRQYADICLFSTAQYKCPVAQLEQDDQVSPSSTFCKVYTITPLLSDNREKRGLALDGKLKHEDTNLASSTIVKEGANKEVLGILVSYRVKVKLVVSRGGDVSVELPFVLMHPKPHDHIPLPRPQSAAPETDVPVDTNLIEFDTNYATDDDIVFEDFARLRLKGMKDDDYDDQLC
(Activated receptors often draw arrestin, which recruitment assays turn into a signal.)

[3] abbreviates: inhibition of cAMP production, potency.
The mark [4] stands for this setting: CHO-K1, β-arrestin2 recruitment.
The mark [5] stands for this setting: inhibition of cAMP production, S1P1.

On to `CC(C)n1nnc2cc(-c3noc(C4CCC4)n3)ccc21` [Compound 18, 5-(5-cyclobutyl-1,2,4-oxadiazol-3-yl)-1-(propan-2-yl)-1H-1,2,3-benzotriazole], for which the Emax in experiment [1] (inhibition of cAMP production) and in experiment [2] (setting [4]) was under 75% throughout. For the same compound, the EC50 is over 0.316 µM in experiment [1] (setting [3]) and over 10 µM in experiment [2] (potency).
With `COc1ccccc1-c1noc(-c2ccc3c(ccn3C(C)C)c2)n1` [Compound 372, 5-(1-isopropyl-1H-indol-5-yl)-3-(2-methoxy-phenyl)-1,2,4-oxadiazole], the Emax in experiment [1] and in experiment [2] (CHO-K1) was over 75% in each case. The EC50 in experiment [1] (setting [5]) was under 0.316 µM; in experiment [2] (S1P1), under 10 µM.
For the compound `CCC1(CC)CC(=O)c2cc(-c3nc(-c4ccc(C(=O)N(C)C)cc4)no3)ccc2O1` [Compound 151, 4-(5-(2,2-diethyl-4-oxochroman-6-yl)-1,2,4-oxadiazol-3-yl)-N,N-dimethylbenzamide], the Emax in experiment [1] (inhibition of cAMP production) and in experiment [2] (setting [4]) was over 75% in each case. For the same compound, the EC50 in experiment [1] (setting [3]) was over 0.316 µM; in experiment [2] (potency), over 10 µM.
In the case of `CC(C)n1ccc2cc(-c3noc(-c4ccccc4F)n3)ccc21` [Compound 387, 5-(2-fluorophenyl)-3-(1-isopropyl-1H-indol-5-yl)-1,2,4-oxadiazole], the Emax in experiment [1] and in experiment [2] (CHO-K1) was over 75% throughout. Also, the EC50 was over 0.316 µM in experiment [1] (setting [5]) and under 10 µM in experiment [2] (S1P1).
For `Brc1ccccc1-c1nc(-c2ccc3c(c2)nnn3Cc2ccccc2)no1` [Compound 52, 3-(1-benzyl-1H-benzo[d][1,2,3]triazol-5-yl)-5-(2-bromophenyl)-1,2,4-oxadiazole], the Emax in experiment [1] (inhibition of cAMP production) and in experiment [2] (setting [4]) was under 75% in each case. In addition, the EC50 in experiment [1] (setting [3]) is over 0.316 µM; in experiment [2] (potency), over 10 µM.
With `Cc1cccc(-c2nc(-c3ccc4c(c3)nnn4C3CCCC3)no2)c1` [Compound 273, 3-(1-cyclopentyl-1H-benzo[d][1,2,3]triazol-5-yl)-5-(m-tolyl)-1,2,4-oxadiazole], the Emax in experiment [1] (inhibition of cAMP production) and in experiment [2] (setting [4]) was under 75% each time. The EC50 in experiment [1] (setting [3]) is over 0.316 µM; in experiment [2] (potency), over 10 µM.
For `CCC1(CC)CC(=O)c2cc(-c3nc(-c4cccs4)no3)ccc2N1` [Compound 591, 2,2-diethyl-6-(3-(thiophen-2-yl)-1,2,4-oxadiazol-5-yl)-2,3-dihydroquinolin-4(1H)-one], the Emax was under 75% in experiment [1] and over 75% in experiment [2] (CHO-K1). Further, the results for the EC50 in experiment [1] (setting [5]) and in experiment [2] (S1P1) were under 0.316 µM and under 10 µM, respectively.
For the compound `COc1ccc(-c2nc(-c3cccc4[nH]ccc34)ns2)cc1` [Compound 361, 4-[5-(4-methoxyphenyl)-1,2,4-thiadiazol-3-yl]-1H-indole], the Emax in experiment [1] (inhibition of cAMP production) and in experiment [2] (setting [4]) was under 75% throughout. In addition, the figures for the EC50 in experiment [1] (setting [3]) and in experiment [2] (potency) were over 0.316 µM and over 10 µM, respectively.
On to `N#Cc1cc(-c2nnc(-c3ccc4c(c3)ncn4CCO)o2)ccc1NCC(F)F` [Compound 578, 2-[(2,2-difluoro-ethyl)amino]-5-{5-[1-(2-hydroxyethyl)-1H-1,3-benzodiazol-5-yl]-1,3,4-oxadiazol-2-yl}benzonitrile], for which the Emax in experiment [1] was over 75%; in experiment [2] (CHO-K1) it was under 75%. Moreover, the EC50 in experiment [1] (setting [5]) is over 0.316 µM; in experiment [2] (S1P1), over 10 µM.
With `COc1cccc(F)c1-c1noc(-c2ccc3c(ccn3C(C)C)c2)n1` [Compound 328, 3-(2-fluoro-6-methoxy-phenyl)-5-(1-isopropyl-indol-5-yl)-1,2,4-oxadiazole], the Emax in experiment [1] (inhibition of cAMP production) and in experiment [2] (setting [4]) was over 75% in each case. Further, the values for the EC50 in experiment [1] (setting [3]) and in experiment [2] (potency) were over 0.316 µM and under 10 µM, respectively.
For `O=C1CCOc2ccc(-c3nc(-c4ccncc4)no3)cc21` [Compound 57, 6-[3-(pyridin-4-yl)-1,2,4-oxadiazol-5-yl]-3,4-dihydro-2H-1-benzopyran-4-one], the Emax in experiment [1] (inhibition of cAMP production) and in experiment [2] (setting [4]) was under 75% throughout. For the same compound, the EC50 was over 0.316 µM in experiment [1] (setting [3]) and over 10 µM in experiment [2] (potency).
For `Cc1ccncc1-c1noc(-c2ccc3c(c2)NC(=O)CN3)n1` [Compound 613, 7-[3-(4-methylpyridin-3-yl)-1,2,4-oxadiazol-5-yl]-1,2,3,4-tetra-hydroquinoxalin-2-one], the Emax in experiment [1] and in experiment [2] (CHO-K1) was under 75% throughout. The EC50 was over 0.316 µM in experiment [1] (setting [5]) and over 10 µM in experiment [2] (S1P1).
Turning to `CC(C)n1nnc2cc(-c3cc(-c4ccccc4F)c[nH]3)ccc21` [Compound 542, 5-[4-(2-fluorophenyl)-1H-pyrrol-2-yl]-1-(propan-2-yl)-1H-1,2,3-benzotriazole], the Emax in experiment [1] and in experiment [2] (CHO-K1) was under 75% in each case. Also, the EC50 in experiment [1] (setting [5]) was over 0.316 µM; in experiment [2] (S1P1) it was under 10 µM.
For the compound `CC(C)n1nnc2cc(-c3ncc(-c4ccc(F)cc4)s3)ccc21` [Compound 37, 5-(4-fluorophenyl)-2-(1-isopropyl-benzotriazol-5-yl)thiazole], the Emax in experiment [1] (inhibition of cAMP production) and in experiment [2] (setting [4]) was under 75% in each case. Moreover, the values for the EC50 in experiment [1] (setting [3]) and in experiment [2] (potency) were over 0.316 µM and over 10 µM, respectively.
For `CC(C)n1nnc2cc(-c3noc(-c4ncccc4O)n3)ccc21` [Compound 602, 2-{3-[1-(propan-2-yl)-1H-1,2,3-benzo-triazol-5-yl]-1,2,4-oxadiazol-5-yl}pyridin-3-ol], the Emax in experiment [1] was under 75%; in experiment [2] (CHO-K1) it was over 75%. Besides, the results for the EC50 in experiment [1] (setting [5]) and in experiment [2] (S1P1) were over 0.316 µM and over 10 µM, respectively.
Turning to `CC(C)n1nnc2cc(-c3noc(C45CC6CC(CC(C6)C4)C5)n3)ccc21` [Compound 200, 5-[5-(adamantan-1-yl)-1,2,4-oxadiazol-3-yl]-1-(propan-2-yl)-1H-1,2,3-benzotriazole], the Emax in experiment [1] (inhibition of cAMP production) and in experiment [2] (setting [4]) was under 75% in each case. Moreover, the EC50 in experiment [1] (setting [3]) is over 0.316 µM; in experiment [2] (potency), over 10 µM.
Regarding `CCC1(CC)CC(=O)c2cc(-c3ncc(-c4ccncc4)cn3)ccc2O1` [Compound 510, 2,2-diethyl-6-(5-(pyridin-4-yl)pyrimidin-2-yl)chroman-4-one], the figures for the Emax in experiment [1] and in experiment [2] (CHO-K1) were under 75% and over 75%, respectively. Besides, the EC50 was under 0.316 µM in experiment [1] (setting [5]) and under 10 µM in experiment [2] (S1P1).
On to `CCC1(CC)CC(=O)c2cc(-c3nc(-c4sccc4OC)no3)ccc2O1` [Compound 604, 2,2-diethyl-6-(3-(3-methoxythiophen-2-yl)-1,2,4-oxadiazol-5-yl)chroman-4-one], for which the Emax in experiment [1] and in experiment [2] (CHO-K1) was over 75% throughout. For the same compound, the results for the EC50 in experiment [1] (setting [5]) and in experiment [2] (S1P1) were under 0.316 µM and under 10 µM, respectively.
For the compound `Brc1ccccc1-c1nc(-c2ccc3c(c2)nnn3Cc2ccccn2)no1` [Compound 45, 5-(2-bromophenyl)-3-(1-(pyridin-2-ylmethyl)-1H-benzo[d][1,2,3]triazol-5-yl)-1,2,4-oxadiazole], the Emax in experiment [1] (inhibition of cAMP production) and in experiment [2] (setting [4]) was under 75% throughout. Moreover, the EC50 in experiment [1] (setting [3]) was over 0.316 µM; in experiment [2] (potency), over 10 µM.
As to `CC(C)n1nnc2cc(-c3noc(-c4cccc5c4CCC5=O)n3)ccc21` [Compound 608, 4-{3-[1-(propan-2-yl)-1H-1,2,3-benzo-triazol-5-yl]-1,2,4-oxadiazol-5-yl}-2,3-dihydro-1H-inden-1-one], the Emax in experiment [1] and in experiment [2] (CHO-K1) was over 75% each time. For the same compound, the EC50 is under 0.316 µM in experiment [1] (setting [5]) and under 10 µM in experiment [2] (S1P1).
With `COc1cc(NC(C)=O)ccc1-c1noc(-c2ccc3nonc3c2)n1` [Compound 533, N-{4-[5-(2,1,3-benzoxadiazol-5-yl)-1,2,4-oxadiazol-3-yl]-3-methoxy-phenyl}acetamide], the Emax in experiment [1] and in experiment [2] (CHO-K1) was under 75% in each case. Also, the EC50 in experiment [1] (setting [5]) is over 0.316 µM; in experiment [2] (S1P1) it was over 10 µM.
With `Cc1occc1-c1noc(-c2ccc3c(c2)nnn3C(C)C)n1` [Compound 491, 5-[3-(2-methylfuran-3-yl)-1,2,4-oxadiazol-5-yl]-1-(propan-2-yl)-1H-1,2,3-benzotriazole], the Emax in experiment [1] and in experiment [2] (CHO-K1) was over 75% throughout. In addition, the EC50 in experiment [1] (setting [5]) is under 0.316 µM; in experiment [2] (S1P1), under 10 µM.
Consider `CCC1(CC)CC(=O)c2cc(-c3nnc(-c4ccccc4OC)o3)ccc2O1` [Compound 300, 2,2-diethyl-6-(5-(2-methoxyphenyl)-1,3,4-oxadiazol-2-yl)chroman-4-one], for which the Emax in experiment [1] (inhibition of cAMP production) and in experiment [2] (setting [4]) was over 75% in each case. Besides, the EC50 in experiment [1] (setting [3]) is over 0.316 µM; in experiment [2] (potency) it was over 10 µM.
Turning to `Cn1cnc2ccc(-c3nnc(-c4ccc(NC(C)(C)CO)c(C#N)c4)o3)cc21` [Compound 634, 2-[(1-hydroxy-2-methylpropan-2-yl)amino]-5-[5-(1-methyl-1H-1,3-benzodiazol-6-yl)-1,3,4-oxadiazol-2-yl]benzonitrile], the Emax in experiment [1] and in experiment [2] (CHO-K1) was under 75% each time. For the same compound, the EC50 in experiment [1] (setting [5]) is over 0.316 µM; in experiment [2] (S1P1) it was over 10 µM.
Take `CCC1(CC)CC(=O)c2cc(-c3nc(-c4cncc(C(F)(F)F)c4)no3)ccc2O1` [Compound 557, 2,2-diethyl-6-(3-(5-(trifluoromethyl)pyridin-3-yl)-1,2,4-oxadiazol-5-yl)chroman-4-one]: the Emax in experiment [1] was over 75%; in experiment [2] (CHO-K1) it was under 75%. The EC50 was over 0.316 µM in experiment [1] (setting [5]) and under 10 µM in experiment [2] (S1P1).
